In US9161543B2, “Biocontrol through the use of chlorine-stabilizer blends” (NALCO COMPANY, priority 2011, dated 2015):

Assay: Blending of stabilizer and sodium hypochlorite: residual oxidant (TRO, FRO) and yield
Format: physicochemical
Conditions: Molar Ratio Cl2:N2 4:1
Method: A number of biocide formulations were prepared and were applied to samples of process water from a paper mill.

## NS(=O)(=O)O [sulfamic acid]
Caustic in Bleach = 0.5%
  FRO (free residual oxidant): 1219 ppm
  FRO/TRO: 18.61%
  TRO (total residual oxidant): 6550 ppm
  TRO Yield: 80.93%
Caustic in Bleach = 3.2%
  FRO (free residual oxidant): 1450 ppm
  FRO/TRO: 23.02%
  TRO (total residual oxidant): 6300 ppm
  TRO Yield: 77.84%
